Results reported in PMC4490130 (Cancer research, 2015).

Target: Pim-1 (Homo sapiens, UniProt P11309)
Assay: X-ray crystal structure
Format: biochemical

O=C/C=C/c1ccccc1O [2′-HCA]
IC50: ~3 µM
